Data reported in article PMC4541410 (Scientific Reports, 2015).
Where a SMILES comes first, the peptide text is derived from it.

Tests used:
[1] = system: T20-resistant HIV-1 variant V38A; format: cell-based
[2] = system: preexisting antibodies in sera from HIV-1-infected patients; experiment: Sandwich ELISA: cross-reactivity of peptides with preexisting antibodies in HIV-1-infected patients; format: binding, human; conditions: peptide coated at 10 μg/ml, serially diluted sera, 37 °C 1 h, A450
Method: A sandwich ELISA was conducted to determine the cross-reactivity of the peptides with the preexisting antibodies in HIV-1-infected patients. […] The wells were then blocked with 1% gelatin, followed by addition of 50 μl of serially diluted sera from HIV-1-infected patients and incubation at 37 °C for 1 h. Then, HRP-labeled goat-anti-human IgG (Abcam, UK) and TMB were added sequentially. A450 was determined with an ELISA reader (Ultra 384, Tecan).

[3] = rat liver homogenate (100 mg wet tissue/2.5 ml PBS pH 7.2, 9,000 g supernatant), peptide 10 μg/ml, 37 °C, LC-MS; triplicate
Method: Chromatographic analyses were performed using an ODS-C8 column (5 μm, 100 mm × 2.0 mm ID) kept at ambient temperature. The mobile phase was composed of acetonitrile-water-formic acid in the ratio of 50:50:0.1 (v/v/v) at a flow rate of 0.3 mL/min. The sample injection volume was 10 μL. Acetonitrile was HPLC grade and other chemical reagents and solvents were analytical grade. A Thermo TSQ Quantum Discovery MAX triple-quadruple tandem mass spectrometer equipped with ESI source (San Jose, CA) and Surveyor LC pump were used for LC-MS analysis. Data acquisition and data processing were performed by using Xcalibur software and LCQuan 2.0 data analysis program (Thermo Finnigan), respectively. Optimized MS parameters were as below: 4800 V spray voltage, 40.0 psi sheath gas pressure, 1.0 psi auxiliary valve flow and 300 °C of capillary temperature. When running collision-induced dissociation (CID), the pressure was set to 1.5 mTorr.
The supernatants were collected.

[4] = target: T1, gp41 6-HB formation between N36 and C34 (Human immunodeficiency virus type 1 group M subtype B, UniProt P04578); experiment: biochemical; format: biochemical, HIV-1
T1 construct: gp41 NHR (“N36”, 546-581); made in house; host or cells: chemical solid-phase FMOC synthesis
T1 sequence (P04578 546-581): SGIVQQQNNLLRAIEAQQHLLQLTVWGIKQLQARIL
Method: Inhibition of gp41 six-helix bundle formation by a testing peptide was determined with a sandwich ELISA described previously. […] A450 was determined by an ELISA reader (Ultra 384, Tecan).

94US_33931N (B) = conditions: read-out: IC50 (nM), infection by primary isolate 94US_33931N (B); primary HIV-1 isolate, subtype B
93IN101 (C) = conditions: read-out: IC50 (nM), infection by primary isolate 93IN101 (C); primary HIV-1 isolate, subtype C
[5] = system: T20-resistant HIV-1 strains

CC[C@H](C)[C@H](NC(=O)[C@H](CO)NC(=O)[C@H](CCC(=O)O)NC(=O)[C@H](CCC(=O)O)NC(=O)[C@H](CCC(N)=O)NC(=O)[C@H](CCCCN)NC(=O)[C@H](CCCCN)NC(=O)[C@@H](NC(=O)[C@H](CCC(N)=O)NC(=O)[C@H](CCC(=O)O)NC(=O)[C@H](CCC(=O)O)NC(=O)[C@@H](NC(=O)[C@H](CCCCN)NC(=O)[C@H](CCCCN)NC(=O)[C@@H](NC(=O)[C@H](CC(C)C)NC(=O)[C@H](CCC(=O)O)NC(=O)[C@H](CCC(=O)O)NC(=O)[C@H](CO)NC(=O)[C@H](CCCCN)NC(=O)[C@H](CCCCN)NC(=O)[C@@H](NC(=O)[C@H](CC(C)C)NC(=O)[C@H](CCC(=O)O)NC(=O)[C@H](CCC(=O)O)NC(=O)[C@@H](NC(=O)[C@H](CCCCN)NC(=O)[C@H](CCCCN)NC(=O)[C@H](CC(=O)O)NC(=O)[C@H](Cc1c[nH]c2ccccc12)NC(=O)[C@H](CCC(=O)O)NC(=O)[C@H](CCC(=O)O)NC(=O)[C@H](Cc1c[nH]c2ccccc12)NC(=O)[C@@H](NC(=O)[C@H](CCSC)NC(C)=O)[C@@H](C)O)[C@@H](C)CC)[C@@H](C)CC)[C@@H](C)CC)[C@@H](C)CC)[C@@H](C)CC)C(=O)N[C@@H](CCCCN)C(=O)N[C@@H](CCCCN)C(N)=O [AP3] (Ac-MTWEEWDKKIEELIKKSEELIKKIEEQIKKQEESIKK-NH2)
IC50 [1]: 12.6 ± 2.66 nM | reactivity with antibodies in sera from five HIV-1-infected patients [2]: none of the three artificial peptides AP1, AP2 and AP3 was recognized | in vitro metabolic stability in liver homogenate [3]: significantly enhanced in vitro metabolic stability over T20 | IC50 [4]: 240 nM | fold more potent than AP1 against 6-HB formation ([4]; AP3 versus AP1): about 30 fold | fold more potent than AP2 against 6-HB formation ([4]; AP3 versus AP2): ~15 fold | IC50 (94US_33931N (B)): 10.2 ± 0.7 nM | IC50 (93IN101 (C)): 16.3 ± 1.5 nM | fold more effective than AP2 against T20-resistant strains ([5]; AP3 versus AP2): 2- to 4 fold | IC50 ([5]; read-out: IC50 against T20-resistant HIV-1 strains (summary), over the T20-resistant strains of Table 1): 13 to 90 nM | fold longer in vivo elimination half-life than T20 (AP3 versus T20, SD rat, i.v. 1 mg/kg): about 2.8 fold | Cmax (intravenous 1 mg/kg, male SD rats, n = 2, plasma by sandwich ELISA, PK Solver): 289.57 µg/mL
